Source: patent US10793522B2, “Sulfonamides as inhibitors of the uptake of extracellular citrate” (Boehringer Ingelheim International GmbH, priority 2016, dated 2020)

Target: T1, human GlyT2 (Homo sapiens, UniProt Q9Y345)
T1 construct: host or cells: HEK293 (HEK293-hGlyT2), cDNA sub-cloned into pcDNA3.1zeo
T1 sequence (Q9Y345 1-797): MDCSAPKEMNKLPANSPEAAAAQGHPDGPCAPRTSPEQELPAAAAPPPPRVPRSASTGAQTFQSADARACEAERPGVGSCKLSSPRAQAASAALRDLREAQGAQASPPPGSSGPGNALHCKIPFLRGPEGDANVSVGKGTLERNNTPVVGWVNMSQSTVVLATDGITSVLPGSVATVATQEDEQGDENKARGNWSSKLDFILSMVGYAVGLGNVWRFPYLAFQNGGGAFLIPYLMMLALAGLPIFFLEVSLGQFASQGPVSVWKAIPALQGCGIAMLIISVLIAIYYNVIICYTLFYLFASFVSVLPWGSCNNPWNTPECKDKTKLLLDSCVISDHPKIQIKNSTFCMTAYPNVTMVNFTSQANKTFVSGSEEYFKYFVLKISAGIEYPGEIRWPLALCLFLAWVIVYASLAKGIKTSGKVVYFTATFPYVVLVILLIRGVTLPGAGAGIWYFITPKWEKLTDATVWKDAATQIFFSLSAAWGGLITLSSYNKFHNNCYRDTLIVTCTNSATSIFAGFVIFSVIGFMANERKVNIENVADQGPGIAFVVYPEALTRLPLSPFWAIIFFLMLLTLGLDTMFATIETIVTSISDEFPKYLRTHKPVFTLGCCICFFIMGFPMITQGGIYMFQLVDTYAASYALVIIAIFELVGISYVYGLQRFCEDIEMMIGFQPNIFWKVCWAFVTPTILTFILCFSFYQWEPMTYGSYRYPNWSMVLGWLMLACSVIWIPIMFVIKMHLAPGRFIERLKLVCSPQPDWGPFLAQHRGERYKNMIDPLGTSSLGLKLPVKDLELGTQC
Experiment: Recombinant human GlyT2/3H-glycine uptake assay
Assay type: cell-based
Conditions: HEK293 cells over-expressing human GlyT2; Cytostar-T; 3H-glycine 100 nM; 2 hours
Source text: (6) Recombinant Human GlyT2/^3H-Glycine Uptake Assay
The human embryonic kidney 293 cell clone (HEK293-hGlyT2) over-expressing the human GlyT2 transporter was generated (the plasmid pCMV6-XL5-hGlyT2 containing the cDNA coding for the human GlyT2 transporter was obtained from Origene, the cDNA for GlyT2 was taken from this plasmid and sub-cloned into pcDNA3.1zeo from Invitrogen).
Human embryonic kidney 293 (HEK 293) cells are used that stably over-express the human GlyT2 […] which is responsible for the uptake of glycine into these cells.
The uptake of ^3H-glycine into the HEK 293 hGlyT2 cells is monitored using the Cytostar-T assay. This assay format is based on the imported radioactive glycine brought into proximity with the scintillant contained within the base of the plate by virtue of the biological processes within the cells. The radioactive decay is converted to a light signal based on the integration of the scintillation matrix into the assay plate.
Method: ^3H-Glycine Uptake Assay
The hGlyT2 over-expressing HEK 293 cells are cultivated in cell culture medium (DMEM+10% fetal calf serum+100 μg/mL Zeocin). For the assay, the medium of the 90% confluent cultures is removed and the cells are washed with DPBS. The cells are detached by the addition of 2 mL AccuMax and resuspended in 10 mL culture medium. The cell suspension is centrifuged at 1000 U/min for 5 min, the supernatant is removed and cells resuspended in expression medium (MEM (medium without glycine)+10% fetal calf serum) without glycine to 200,000 cells/mL and distributed into the Cytostar-T Scintillating 96-well Microplates (40,000 cells/well; 200 μl/well). The lid covered MTPs are then incubated for 24 hours at 37° C.; 5% CO2.
The following day, the cell plates are washed once with 200 μL HBSS/Ala buffer (HBSS 10× (+Ca, +Mg) with 5 mM Alanine adjusted to pH 7.4 with NaOH) following a 1 h incubation at 37° C.; 5% CO2, and subsequently 100 μL/well of HBSS/Ala containing 1.2× the concentration of compound in 1.2% DMSO (test range final: 100 μM-100 nM) incubated for 20 min at 37° C. Following the addition of 20 μL/well ^3H-glycine in HBSS/Ala (final ^3H-glycine concentration 100 nM) and an incubation for 2 hours at 37° C., the assay plate is placed into the Topcount NXT HTS and the signal is recorded.
The IC50 values of the compounds are calculated in IDBS XLfit by sigmoidal dose-response (variable slope).

SMILES | IC50 [µM]
O=C(NCc1ccc(Cl)cc1)C1CCN(S(=O)(=O)c2cc(Cl)cc(Cl)c2)CC1 [(I-5)] | > 100
O=C(NCc1ccc(F)cc1)C1CCN(S(=O)(=O)c2cc(Cl)cc(Cl)c2)CC1 [(I-10)] | > 100
O=C(NCc1ccccc1F)C1CCN(S(=O)(=O)c2cc(Cl)cc(Cl)c2)CC1 [(I-2)] | > 100
O=C(NCc1ccccn1)C1CCN(S(=O)(=O)c2cc(Cl)cc(Cl)c2)CC1 [(I-11)] | > 100

Second part, the compound after the results:

IC50 [µM] | SMILES
> 100 | N#Cc1ccc(CNC(=O)C2CCN(S(=O)(=O)c3cc(Cl)cc(Cl)c3)CC2)cc1 [Example (I-1)]
> 100 | Cc1cnc(CNC(=O)C2CCN(S(=O)(=O)c3cc(Cl)cc(Cl)c3)CC2)s1 [(I-27)]
> 70 | O=C(NCc1ccc(F)cn1)C1CCN(S(=O)(=O)c2cc(Cl)cc(Cl)c2)CC1 [(I-20)]
> 100 | Cc1ccc(CNC(=O)C2CCN(S(=O)(=O)c3cc(Cl)cc(Cl)c3)CC2)nc1 [(I-15)]
> 100 | CCOc1cc(Cl)cc(S(=O)(=O)N2CCC(C(=O)NCc3nccs3)CC2)c1 [(I-49)]
> 100 | Cc1cc(Br)cc(S(=O)(=O)N2CCC(C(=O)NCc3ccccn3)CC2)c1 [(I-61)]
